The record followed here is patent publication US11161817B2, “Quinoline derivative and use thereof as tyrosine kinase inhibitor” (CHONGQING PHARMACEUTICAL INDUSTRIAL RESEARCH INSTITUTE CO. …, priority 2017, dated 2021).

Structures are written as SMILES. Where two headings read alike, the source gives them in different places. Bounds are passed on as bounds.

What is called IC50 is the concentration that gives 50% inhibition.

In one data set the target is FGFR1(h) (Homo sapiens, UniProt P11362). The data set is described as follows: In vitro kinase activity test, FGFR1(h).
In the next data set the target is Lck(h) (Homo sapiens, UniProt P06239). Kind of data set: In vitro kinase activity test, Lck(h).
A further data set has as its target Flt4(h) (Homo sapiens, UniProt P35916). Kind of data set: In vitro kinase activity test, Flt4(h).
The next data set concerns the target Flt1(h) (Homo sapiens, UniProt P17948). Kind of data set: In vitro kinase activity test, Flt1(h).
Another data set addresses FGFR3(h) (Homo sapiens, UniProt P22607). The data set is described as follows: In vitro kinase activity test, FGFR3(h).
A further data set has as its target TNIK(h) (Homo sapiens, UniProt Q9UKE5). The data set is described as follows: In vitro kinase activity test, TNIK(h).
A further data set addresses MINK(h) (Homo sapiens, UniProt Q8N4C8). The data set is described as follows: In vitro kinase activity test, MINK(h).
For the next data set, the target named is cKit(h) (Homo sapiens, UniProt P10721). Kind of data set: In vitro kinase activity test, cKit(h).
The nature of data set [1]: Pharmacokinetic evaluation in rats, intravenous and oral administration. It is filed as in vivo, SD rats. As to conditions: for Vd / AUC(0-t) / half-life / clearance: rat, plasma, male SD rats, intravenous injection, 1.0 mg/kg, single; for Vd: read-out: apparent volume of distribution at steady state (Vdss); for AUC(0-t): read-out: area under the plasma concentration-time curve (AUC0-last); for half-life: read-out: elimination half-life (T1/2) (converted); for clearance: read-out: plasma clearance (CL).

For the next data set, the target named is PDGFRβ(h) (Homo sapiens, UniProt P09619). The data set is described as follows: In vitro kinase activity test, PDGFRβ(h).
The next data set concerns the target c-Met (Homo sapiens, UniProt P08581). Kind of data set: In vitro kinase activity test, c-Met.
The next data set concerns the target FGFR4(h) (Homo sapiens, UniProt P22455). Kind of data set: In vitro kinase activity test, FGFR4(h).
The target of a further data set is cKit(V560G)(h) (Homo sapiens, UniProt P10721, V560G). Kind of data set: In vitro kinase activity test, cKit(V560G)(h).
The nature of data set [2]: Pharmacokinetic evaluation in rats, intravenous and oral administration. The settings on record: for time to peak concentration / AUC(0-t) / bioavailability / Cmax: male SD rats, intragastric, 5 mg/kg, single; for AUC(0-t) / bioavailability / Cmax: rat, plasma, po; for Cmax: read-out: peak concentration (Cmax). It counts as in vivo, SD rats. Here is the method: Experimental objective: evaluation of the oral absorption in animals of the product of Embodiment 1 by intravenous and oral administration in rats
Experimental materials: male, SD rats, EDTA-K2
0.5 mg/mL of the test compound suspended in 0.5% Methocel/0.2% Tween 80 was administered intragastrically to male SD rats (overnight fasting, 7-11 week-age) at a dose of 5 mg/kg. About 30 μL blood was collected from the jugular or caudal vein of each animal in the two groups at 0.25, 0.5, 1.0, 2.0, 4.0, 8.0, and 24 hours after administration, added into anticoagulated tubes containing EDTA-K2, and the mixture was centrifuged to obtain the plasma. LC-MS/MS method was used to determine the drug concentration in blood, and WinNonlin™ Version 6.3 (Pharsight, Mountain View, Calif.) pharmacokinetic software was used to calculate the relevant pharmacokinetic parameters by non-compartment model logarithmic trapezoidal method.

For the next data set, the target named is FGFR2(h) (Homo sapiens, UniProt P21802). Kind of data set: In vitro kinase activity test, FGFR2(h).
A further data set concerns the target KDR(h) (Homo sapiens, UniProt P35968). The data set is described as follows: In vitro kinase activity test, KDR(h). As to conditions: read-out: KDR(h) IC50; Table 2; ATP 10 μM.
In another data set the target is T1, Aurora-A(h) (Homo sapiens, UniProt O14965).
T1 sequence (O14965 1-403): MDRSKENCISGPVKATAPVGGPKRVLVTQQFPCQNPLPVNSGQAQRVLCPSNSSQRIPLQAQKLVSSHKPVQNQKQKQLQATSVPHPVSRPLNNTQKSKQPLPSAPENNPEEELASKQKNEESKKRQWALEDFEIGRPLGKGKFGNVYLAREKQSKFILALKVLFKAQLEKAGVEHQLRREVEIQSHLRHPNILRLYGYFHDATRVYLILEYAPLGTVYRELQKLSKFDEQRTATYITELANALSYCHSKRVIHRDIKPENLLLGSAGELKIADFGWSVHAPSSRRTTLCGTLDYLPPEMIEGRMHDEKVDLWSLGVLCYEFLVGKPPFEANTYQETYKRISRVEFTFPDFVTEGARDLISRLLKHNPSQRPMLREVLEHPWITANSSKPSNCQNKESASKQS
Kind of data set: In vitro kinase activity test, Aurora-A(h). The settings on record: read-out: Aurora-A(h) IC50; Table 2; ATP 10 μM.

Another data set has as its target Abl(h) (Homo sapiens, UniProt P00519). Kind of data set: In vitro kinase activity test, Abl(h).
The nature of data set [3]: Pharmacokinetic evaluation in mice, intravenous and oral administration. It is filed as in vivo. As to conditions: male Balb/c nude mice, single. As for the experimental part:
Experimental objective: evaluation of the oral absorption in animals of the product of Embodiment 1 by intravenous and oral administration in mice
Experimental materials: Balb/c nude mice, EDTA-K2
Experimental procedure: 0.5 mg/mL 5% DMSO/95% (10% HP-β-CD) clear solution of the product of Embodiment 1 was injected intravenously into male Balb/c nude mice (overnight fasting, 7-9 week-age) via caudal vein at a dose of 1 mg/kg. 0.5 mg/mL test compound suspended in 0.5% Methocel/0.2% Tween 80 was administered intragastrically to male Balb/c nude mice (overnight fasting, 7-9 week-age) at a dose of 5 mg/kg. About 30 μL blood was collected from the jugular or caudal vein of each animal in the two groups at 0.25, 0.5, 1.0, 2.0, 4.0, 8.0 and 24 hours after administration, added into anticoagulated tubes containing EDTA-K2, and the mixture was centrifuged to obtain the plasma. LC-MS/MS method was used to determine the drug concentration in blood, and WinNonlin™ Version 6.3 (Pharsight, Mountain View, Calif.) pharmacokinetic software was used to calculate the relevant pharmacokinetic parameters by non-compartment model logarithmic trapezoidal method.

Setting [4] is: c-Met kinase activity IC50, Table 3, value 45.6 is from the second test (Note 1).
Where [5] appears, read: rats, intravenous administration.

Sequence of c-Met (P08581 25-1390): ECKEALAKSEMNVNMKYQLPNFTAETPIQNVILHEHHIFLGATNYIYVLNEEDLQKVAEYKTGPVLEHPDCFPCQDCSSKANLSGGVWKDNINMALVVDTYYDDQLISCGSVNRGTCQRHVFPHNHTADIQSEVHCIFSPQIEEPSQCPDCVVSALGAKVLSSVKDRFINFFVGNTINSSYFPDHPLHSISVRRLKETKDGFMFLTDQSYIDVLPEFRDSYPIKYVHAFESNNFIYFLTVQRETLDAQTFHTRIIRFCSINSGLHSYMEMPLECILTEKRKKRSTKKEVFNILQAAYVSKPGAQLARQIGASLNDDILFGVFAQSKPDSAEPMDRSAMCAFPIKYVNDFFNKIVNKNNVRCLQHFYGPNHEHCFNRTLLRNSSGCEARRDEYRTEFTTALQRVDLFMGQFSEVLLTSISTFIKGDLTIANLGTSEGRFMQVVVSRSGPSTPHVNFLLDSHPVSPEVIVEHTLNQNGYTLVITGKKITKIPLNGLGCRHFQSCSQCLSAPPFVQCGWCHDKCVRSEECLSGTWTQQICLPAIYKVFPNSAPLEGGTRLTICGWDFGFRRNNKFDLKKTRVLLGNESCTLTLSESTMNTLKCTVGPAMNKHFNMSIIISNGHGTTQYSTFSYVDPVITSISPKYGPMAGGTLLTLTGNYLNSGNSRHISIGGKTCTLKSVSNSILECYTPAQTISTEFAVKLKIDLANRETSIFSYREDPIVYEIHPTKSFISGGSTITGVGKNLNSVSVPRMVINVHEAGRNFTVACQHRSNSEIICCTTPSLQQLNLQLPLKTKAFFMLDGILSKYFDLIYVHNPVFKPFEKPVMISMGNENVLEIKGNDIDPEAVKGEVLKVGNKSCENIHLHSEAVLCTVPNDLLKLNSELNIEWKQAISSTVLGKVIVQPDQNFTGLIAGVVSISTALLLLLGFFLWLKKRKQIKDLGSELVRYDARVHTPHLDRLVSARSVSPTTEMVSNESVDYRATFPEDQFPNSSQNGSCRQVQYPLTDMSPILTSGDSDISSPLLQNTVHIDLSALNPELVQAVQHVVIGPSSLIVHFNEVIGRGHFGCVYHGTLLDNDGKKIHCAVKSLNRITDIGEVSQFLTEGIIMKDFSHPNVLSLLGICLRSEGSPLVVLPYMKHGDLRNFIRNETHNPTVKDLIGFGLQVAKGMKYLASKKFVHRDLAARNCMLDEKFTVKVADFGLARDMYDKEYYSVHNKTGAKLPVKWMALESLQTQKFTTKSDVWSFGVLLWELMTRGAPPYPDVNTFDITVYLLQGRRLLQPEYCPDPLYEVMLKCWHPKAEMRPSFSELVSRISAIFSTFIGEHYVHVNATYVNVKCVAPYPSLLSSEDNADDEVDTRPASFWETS
Sequence of FGFR1(h) (P11362 22-822): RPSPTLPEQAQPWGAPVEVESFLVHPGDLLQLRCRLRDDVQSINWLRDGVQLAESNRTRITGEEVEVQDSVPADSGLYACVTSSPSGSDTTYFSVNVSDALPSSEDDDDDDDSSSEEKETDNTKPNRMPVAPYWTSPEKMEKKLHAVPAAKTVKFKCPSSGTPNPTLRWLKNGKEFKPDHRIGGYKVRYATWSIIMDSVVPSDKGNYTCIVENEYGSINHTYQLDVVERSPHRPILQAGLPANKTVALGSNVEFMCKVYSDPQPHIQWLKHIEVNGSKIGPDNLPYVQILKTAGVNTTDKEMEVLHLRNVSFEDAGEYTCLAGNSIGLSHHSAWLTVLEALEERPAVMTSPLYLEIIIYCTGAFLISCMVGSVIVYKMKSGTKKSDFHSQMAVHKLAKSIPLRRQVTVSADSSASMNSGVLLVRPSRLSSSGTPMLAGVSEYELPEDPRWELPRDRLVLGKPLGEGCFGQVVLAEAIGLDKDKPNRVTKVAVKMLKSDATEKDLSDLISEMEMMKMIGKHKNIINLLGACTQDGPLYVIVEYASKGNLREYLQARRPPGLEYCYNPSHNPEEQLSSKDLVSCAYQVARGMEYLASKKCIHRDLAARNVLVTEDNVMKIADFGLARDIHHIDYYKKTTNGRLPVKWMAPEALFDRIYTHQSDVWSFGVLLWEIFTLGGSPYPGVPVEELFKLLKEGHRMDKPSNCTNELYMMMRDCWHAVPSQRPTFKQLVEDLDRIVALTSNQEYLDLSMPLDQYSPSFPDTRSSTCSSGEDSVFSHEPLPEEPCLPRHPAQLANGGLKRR
Sequence of Abl(h) (P00519 whole entry): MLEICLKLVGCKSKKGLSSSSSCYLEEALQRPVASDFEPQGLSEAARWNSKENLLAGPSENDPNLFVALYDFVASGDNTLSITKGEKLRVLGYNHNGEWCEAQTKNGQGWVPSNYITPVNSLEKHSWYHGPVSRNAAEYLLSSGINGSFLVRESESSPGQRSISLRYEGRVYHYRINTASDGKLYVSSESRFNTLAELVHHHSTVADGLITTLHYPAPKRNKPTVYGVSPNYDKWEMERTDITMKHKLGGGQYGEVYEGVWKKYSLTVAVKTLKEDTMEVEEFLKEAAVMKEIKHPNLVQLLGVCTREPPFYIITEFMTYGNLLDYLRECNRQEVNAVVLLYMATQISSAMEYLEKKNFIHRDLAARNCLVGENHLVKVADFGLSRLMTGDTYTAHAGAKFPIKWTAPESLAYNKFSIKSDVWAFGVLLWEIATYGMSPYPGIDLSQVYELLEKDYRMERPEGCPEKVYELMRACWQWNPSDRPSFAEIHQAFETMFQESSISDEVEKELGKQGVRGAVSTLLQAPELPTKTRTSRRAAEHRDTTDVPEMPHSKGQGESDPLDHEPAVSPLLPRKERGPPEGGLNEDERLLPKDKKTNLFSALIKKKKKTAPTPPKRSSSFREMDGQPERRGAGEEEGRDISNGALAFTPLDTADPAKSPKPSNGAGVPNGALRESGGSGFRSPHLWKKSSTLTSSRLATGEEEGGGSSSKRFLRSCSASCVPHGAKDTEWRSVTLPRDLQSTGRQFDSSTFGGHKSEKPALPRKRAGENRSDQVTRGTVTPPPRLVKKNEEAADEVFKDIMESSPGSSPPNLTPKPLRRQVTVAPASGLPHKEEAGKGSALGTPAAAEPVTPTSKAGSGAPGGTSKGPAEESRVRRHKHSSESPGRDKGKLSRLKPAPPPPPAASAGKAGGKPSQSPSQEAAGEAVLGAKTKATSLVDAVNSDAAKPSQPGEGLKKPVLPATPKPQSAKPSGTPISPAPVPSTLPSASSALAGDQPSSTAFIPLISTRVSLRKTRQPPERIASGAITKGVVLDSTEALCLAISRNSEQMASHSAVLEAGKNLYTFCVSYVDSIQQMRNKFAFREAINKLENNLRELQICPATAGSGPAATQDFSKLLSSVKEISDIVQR
Sequence of FGFR4(h) (P22455 22-802): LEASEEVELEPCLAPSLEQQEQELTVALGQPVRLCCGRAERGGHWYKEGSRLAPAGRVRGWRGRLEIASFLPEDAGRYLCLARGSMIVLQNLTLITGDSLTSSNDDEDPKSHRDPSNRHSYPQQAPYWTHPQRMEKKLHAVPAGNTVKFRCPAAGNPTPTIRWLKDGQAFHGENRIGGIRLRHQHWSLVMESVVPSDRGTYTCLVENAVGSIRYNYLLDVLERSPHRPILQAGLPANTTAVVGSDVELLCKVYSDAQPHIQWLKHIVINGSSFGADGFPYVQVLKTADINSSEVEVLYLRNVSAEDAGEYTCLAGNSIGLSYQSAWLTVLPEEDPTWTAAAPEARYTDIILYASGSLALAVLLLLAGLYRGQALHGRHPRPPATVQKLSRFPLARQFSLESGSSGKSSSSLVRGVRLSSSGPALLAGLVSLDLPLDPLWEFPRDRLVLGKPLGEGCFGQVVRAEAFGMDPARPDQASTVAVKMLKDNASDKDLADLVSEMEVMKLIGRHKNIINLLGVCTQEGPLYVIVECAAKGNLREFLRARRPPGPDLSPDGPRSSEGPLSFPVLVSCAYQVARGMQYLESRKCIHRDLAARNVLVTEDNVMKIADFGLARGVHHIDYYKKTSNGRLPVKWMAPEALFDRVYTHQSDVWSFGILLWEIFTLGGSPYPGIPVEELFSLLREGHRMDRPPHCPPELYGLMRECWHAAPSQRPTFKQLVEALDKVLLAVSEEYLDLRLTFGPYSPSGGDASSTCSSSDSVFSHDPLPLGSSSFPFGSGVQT
Sequence of Lck(h) (P06239 whole entry): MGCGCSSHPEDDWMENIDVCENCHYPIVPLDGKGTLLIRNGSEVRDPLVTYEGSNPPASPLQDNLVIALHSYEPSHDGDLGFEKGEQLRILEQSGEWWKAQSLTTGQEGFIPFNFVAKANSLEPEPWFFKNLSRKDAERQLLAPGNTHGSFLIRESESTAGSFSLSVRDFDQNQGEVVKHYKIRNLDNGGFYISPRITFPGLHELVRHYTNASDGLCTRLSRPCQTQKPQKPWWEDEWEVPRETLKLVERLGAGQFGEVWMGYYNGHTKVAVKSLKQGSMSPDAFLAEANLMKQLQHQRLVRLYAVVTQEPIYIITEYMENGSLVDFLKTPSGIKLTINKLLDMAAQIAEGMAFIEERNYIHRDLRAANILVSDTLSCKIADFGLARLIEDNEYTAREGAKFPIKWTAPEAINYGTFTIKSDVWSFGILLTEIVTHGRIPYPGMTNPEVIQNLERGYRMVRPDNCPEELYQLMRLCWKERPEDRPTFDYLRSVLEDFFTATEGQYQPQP
Description for Abl(h): (§1) Protein kinase with a corresponding enzyme concentration of X (shown in table 1), peptide substrate with a concentration of Y, ATP with a specific concentration, 8 mM MOPS (pH 7.0), and 10 mM MgCl2 were added. The detection plate was P30 filtermat, and the reaction was performed at room temperature for T minutes, and the reaction system was 10 μL.
(§2) The reaction was terminated by adding 0.5% phosphoric acid to the kinase reaction solution, and the plate was read by an Envision instrument.
(§3) The data were converted into phosphorylation rate and inhibition rate, and subjected to parameter curve-fitting (GraphPad Software) to obtain IC50 data of the compounds.
Description for Aurora-A(h): as §1, §2, §3
Description for FGFR1(h): as §1, §2, §3
Description for FGFR2(h): as §1, §2, §3
Description for FGFR3(h): as §1, §2, §3
Description for FGFR4(h): as §1, §2, §3
Description for Flt1(h): as §1, §2, §3
Description for Flt4(h): as §1, §2, §3
Description for KDR(h): as §1, §2, §3
Description for Lck(h): as §1, §2, §3
Description for MINK(h): as §1, §2, §3
Description for PDGFRβ(h): as §1, §2, §3
Description for TNIK(h): as §1, §2, §3
Description for c-Met: as §1, §2, §3
Description for cKit(V560G)(h): as §1, §2, §3
Description for cKit(h): as §1, §2, §3

Turning to `COc1cc2nccc(Oc3ccc(NC(=O)NC4CC4)c(Cl)c3)c2cc1C(N)=O` [Comparative Compound 1, Lovatinib], the IC50 at FGFR1(h) is 76.6 nM; against Lck(h) it was 69 nM; at Flt4(h) it was 3 nM; against Flt1(h), 13 nM; against FGFR3(h), 132 nM; on TNIK(h) it was 91 nM. The IC50 at MINK(h) was determined as 359 nM; against cKit(h), 78 nM; against PDGFRβ(h), 275 nM; at c-Met (c-Met IC50, Table 2, ATP 10 μM) it was 598 nM; at FGFR4(h), 1120 nM; at cKit(V560G)(h), 596 nM. The IC50 at FGFR2(h) turned out to be 14 nM. Also, the Vd in data set [1] was 0.407 L/kg. Besides, the AUC(0-t) in [1] was 15.1 µM·h; in data set [2] it was 44.5 µM·h. Moreover, the half-life in data set [1] is 2.53 h. For the same compound, the clearance in data set [1] worked out at 2.6 mL/min/kg. Also, in data set [2], the “time to peak concentration” value came to 1.25 h. For the same compound, the bioavailability in data set [2] was 58.7%. In data set [2], the Cmax is 10.1 µM.
For `COc1cc2nccc(Oc3ccc(NC(=S)NC4CC4)c(Cl)c3F)c2cc1C(N)=O` [Comparative Compound 2], the IC50 stood at 69 nM on FGFR1(h) (read-out: FGFR1(h) IC50, Table 2, ATP 5 μM); 252 nM on Lck(h) (read-out: Lck(h) IC50, Table 2, ATP 10 μM); 8 nM against Flt4(h); 31 nM on Flt1(h) (read-out: Flt1(h) IC50, Table 2, ATP 10 μM); 118 nM at TNIK(h) (read-out: TNIK(h) IC50, Table 2, ATP 10 μM); 55 nM at MINK(h) (read-out: MINK(h) IC50, Table 2, ATP 10 μM). Moreover, the IC50 turned out to be 7 nM on KDR(h); 31 nM on PDGFRβ(h) (read-out: PDGFRβ(h) IC50, Table 2, ATP 10 μM); 262 nM on Aurora-A(h); 15 nM on FGFR2(h).
Take `COc1cc2nccc(Oc3cc(F)c(NC(=O)NC4CC4)cc3F)c2cc1C(N)=O` [Comparative Compound 3]: the IC50 against FGFR1(h) was 160 nM; against Abl(h), 817 nM; against c-Met (setting [4]), greater than 10000 nM; against FGFR4(h) it was 509 nM.
On the same counts, the results for `COc1cc2nccc(Oc3ccc(NC(=O)NC4CC4)c(F)c3F)c2cc1C(N)=O` [Comparative Compound 4] are 31 nM, 292 nM, 79.8 nM and 108 nM.
For `COc1cc2nccc(Oc3cc(Cl)c(NC(=O)NC4CC4)cc3F)c2cc1C(N)=O` [Comparative Compound 5], in that order: 89 nM, 207 nM, 32 nM and 137 nM.
On the same counts, the results for `COc1cc2nccc(Oc3ccc(NC(=O)NC4CC4)c(F)c3)c2cc1C(N)=O` [Comparative Compound 6] are 1740 nM, 2210 nM, 282 nM and 4560 nM.
`COc1cc2nccc(Oc3cc(F)c(NC(=O)NC4CC4)c(Cl)c3)c2cc1C(N)=O` [Comparative Compound 7]: the results for the IC50 at FGFR1(h), on c-Met (setting [4]) and at FGFR4(h) were 54 nM, greater than 10000 nM and 1110 nM, respectively.
With `COc1cc2nccc(Oc3ccc(NC(=O)NC4CC4)c(Cl)c3F)c2cc1C(N)=O` [Embodiment 1], the Vd in [1] was 0.259 L/kg; in data set [3] (mouse, plasma, intravenous injection, 1.0 mg/kg, read-out: apparent volume of distribution at steady state (Vdss)) it was 1.48 L/kg. In addition, the AUC(0-t) was found to be 23.4 µM·h in data set [1]; 24.9 µM·h in data set [3] (mouse, plasma, po, intragastric, 5 mg/kg, read-out: AUC0-last); 3.21 µM·h in data set [3] (mouse, plasma, intravenous injection, 1.0 mg/kg, read-out: area under the plasma concentration-time curve (AUC0-last)); 71.1 µM·h in [2]. Besides, the half-life in [1] is 2.64 h; in data set [3] (mouse, plasma, intravenous injection, 1.0 mg/kg, read-out: elimination half-life (T1/2) (converted)), 2.68 h. In addition, the clearance in data set [1] was determined as 1.6 mL/min/kg; in [3] (mouse, plasma, intravenous injection, 1.0 mg/kg, read-out: plasma clearance (CL)) it was 11 mL/min/kg. The “AUC0-last increased, compared with Comparative Compound 1” value in [1] (setting [5]) came out at 55%; in data set [2] (rats, oral absorption), 27%. Besides, the “plasma clearance reduced, compared with Comparative Compound 1” value in data set [1] (setting [5]) was roughly 38%. For the same compound, the “time to peak concentration” value in data set [3] (intragastric, 5 mg/kg) worked out at 0.5 h; in data set [2] it was 0.375 h. Also, the bioavailability in [3] (mouse, plasma, po, intragastric, 5 mg/kg) came out at 144%; in data set [2] it was 60.8%. For the same compound, the Cmax came to 9.83 µM in data set [3] (mouse, plasma, po, intragastric, 5 mg/kg, read-out: peak concentration (Cmax)) and 19.6 µM in data set [2].
